Results taken from US11414402B2, “Sulfonamide-substituted cyanopyrrolidines with activity as DUB inhibitors” (MISSION THERAPEUTICS LIMITED, priority 2017, dated 2022).

Assays:
USP30 = USP30 (Homo sapiens (Human), UniProt Q70CQ3); test: USP30 biochemical IC50 assay (fluorescence polarisation); conditions: USP30 CD (57-517); 30 min preincubation at room temp; TAMRA-peptide-ubiquitin substrate 50 nM; read after 2-hour incubation; read-out: IC50 range
Description: (§1) A typical 8-point dilution series would be 100, 30, 10, 3, 1, 0.3, 0.1, 0.03 μM final. […] Either 1 μl of 50% DMSO or diluted compound was added to the plate. USP30 was diluted in reaction buffer (40 mM Tris, pH 7.5, 0.005% Tween 20, 0.5 mg/ml BSA, 5 mM beta-mercaptoethanol) to the equivalent of 0.05 μl/well and 10 μl of diluted USP30 was added to the compound. Enzyme and compound were incubated for 30 min at room temp. Reactions were initiated by the addition of 50 nM of TAMRA labelled peptide linked to ubiquitin via an iso-peptide bond as fluorescence polarisation substrate. Reactions were read immediately after addition of substrate and following a 2-hour incubation at room temperature. Readings were performed on a Pherastar Plus (BMG Labtech). λ Excitation 540 nm; λ Emission 590 nm.

UCHL1 = UCHL1 (Homo sapiens (Human), UniProt P09936); test: UCHL1 biochemical IC50 assay (fluorescence polarisation); conditions: FLAG-UCHL1; 30 min preincubation at room temp; TAMRA-peptide-ubiquitin substrate 50 nM; read after 2-hour incubation; read-out: IC50 range
Description: The UCHL1 construct was PCR amplified and cloned into a pFLAG-CMV-6a vector (Sigma-Aldrich) with an N-terminal FLAG tag. HEK293T cells were transfected with FLAG-UCHL1 using TransIT-LT1 transfection reagent (Mirus) according to the manufacturer's instructions. Cells were harvested 40 hours after transfection. […] The resin was washed two times with low salt buffer and one time with high salt buffer (20 mM Tris, pH 7.5, 500 mM NaCl, 0.5 mM EDTA, 5 mM beta-mercaptoethanol, protease inhibitors (complete mini, Roche) and phosphatase inhibitors (PhosSTOP mini, Roche). To elute the bound UCHL1, elution buffer (10 mM Tris, pH 7.5, 150 mM NaCl, 0.5 mM EDTA, 10% glycerol, 0.5% NP40, 5 mM beta-mercaptoethanol, 0.15 mg/ml 3× FLAG peptide (Sigma-Aldrich)) was added to the resin and incubated at 4° C. for 2.5 hours rotating. The resin was centrifuged at 4000 rpm for 30 seconds, and the supernatant containing purified FLAG-UCHL1 was removed and stored at −80° C.
UCHL1 was diluted in reaction buffer (20 mM Tris, pH 7.5, 100 mM NaCl, 0.05% Tween 20, 0.5 mg/ml BSA, 5 mM beta-mercaptoethanol) to the equivalent of 0, 0.01, 0.05, 0.1, 0.5, and 1 μl/well. Buffer was optimised for optimal temperature, pH, reducing agent, salts, time of incubation, and detergent. Reactions were initiated by the addition of 50 nM of TAMRA labelled peptide linked to ubiquitin via an iso-peptide bond as fluorescence polarisation substrate. Reactions were incubated at room temperature and read every 2 min for 120 min. Readings were performed on a Pherastar Plus (BMG Labtech). λ Excitation 540 nm; λ Emission 590 nm.
as §1, with “to” for “would”, “be” for “be 100,”, “0.03, 0.01” for “0.03”, “UCHL1” for “USP30”, “(20” for “(40”, “100 mM NaCl, 0.05%” for “0.005%”

Chain of UCHL1 (P09936 whole entry): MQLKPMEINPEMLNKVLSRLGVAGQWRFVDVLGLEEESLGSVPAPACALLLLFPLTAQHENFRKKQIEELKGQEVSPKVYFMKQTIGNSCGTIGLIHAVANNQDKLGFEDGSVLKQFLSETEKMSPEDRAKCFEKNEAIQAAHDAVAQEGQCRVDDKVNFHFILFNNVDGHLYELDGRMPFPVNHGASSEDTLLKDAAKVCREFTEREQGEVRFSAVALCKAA
Chain of USP30 (Q70CQ3 57-517): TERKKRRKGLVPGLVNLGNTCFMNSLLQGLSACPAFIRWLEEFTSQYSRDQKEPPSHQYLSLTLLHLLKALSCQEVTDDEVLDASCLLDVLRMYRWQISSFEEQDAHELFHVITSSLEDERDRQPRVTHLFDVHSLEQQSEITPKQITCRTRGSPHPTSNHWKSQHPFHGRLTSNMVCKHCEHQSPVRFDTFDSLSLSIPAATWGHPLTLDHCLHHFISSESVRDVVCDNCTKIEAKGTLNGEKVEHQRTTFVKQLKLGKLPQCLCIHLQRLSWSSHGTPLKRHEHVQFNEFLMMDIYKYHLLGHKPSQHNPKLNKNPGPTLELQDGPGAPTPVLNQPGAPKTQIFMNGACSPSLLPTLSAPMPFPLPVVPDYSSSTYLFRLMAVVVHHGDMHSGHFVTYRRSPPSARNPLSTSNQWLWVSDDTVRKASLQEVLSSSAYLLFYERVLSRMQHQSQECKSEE

With `N#CN1CC[C@H](NS(=O)(=O)c2ccccc2)C1` [Example 6, (S)-N-(1-cyanopyrrolidin-3-yl)benzenesulfonamide] the IC50 (USP30) was 1 to 10 µM and the IC50 (UCHL1) was 10 to 100 µM.
`N#CN1CC[C@@H](NS(=O)(=O)c2ccc(-c3ccccc3)cc2)C1` [Example 3, (R)-N-(1-cyanopyrrolidin-3-yl)-[1,1′-biphenyl]-4-sulfonamide] gave an IC50 (USP30) of 0.1 to 1 µM and an IC50 (UCHL1) of 10 to 100 µM.
